From US5466712A, “Substituted n-aryl-1,2-diaminocyclobutene-3,4-diones” (American Home Products Corporation, priority 1994, dated 1995) come the findings set out here.

For this assay, the system named is Isolated Rat Bladder Strips. The experiment in a line: Inhibition of Contractions in Isolated Rat Bladder Strips (15 mM KCl-enhanced contractions). The note with it: 0.5 h, 30 min challenge; for inhibition at 30 µM: read-out: Inhibition of Force (%) at (x) μM; for IC50: concentration eliciting 50% inhibition of pre-drug contractile activity. The class given is cell-based, Sprague-Dawley rats. The text has this:
Smooth muscle relaxing activity of the compounds of this invention was established in accordance with standard pharmaceutically accepted test procedures in representative compounds as follows:
Sprague-Dawley rats (150-200 g) are rendered unconscious by CO2 asphyxiation and then euthanized by cervical dislocation. The bladder is removed into warm (37 deg. C.) physiological salt solution (PSS) of the following composition (mM): NaCl, 118.4; KCl, 4.7; […]; NaHCO3, 24.9; KH2 PO4, 1.2; glucose, 11.1; EDTA, 0.023; gassed with […]; pH 7.4. The bladder is opened and then cut into strips 1-2 mm in width and 7-10 mm in length. The strips are subsequently suspended in a 10 mL tissue bath under an initial resting tension of 1.5 g. The strips are held in place by two surgical clips one of which is attached to fixed hook while the other is attached to an isometric force transducer. […] The carbachol is then washed out and the tissue allowed to relax to its resting level of activity. Following 1 further 30 min period of recovery an additional 15 mM KCl are introduced into the tissue bath. This increase in KCl concentration results in a large increase in the amplitude of spontaneous contractions (and initiation of contractions in previously quiescent strips) superimposed upon a small increase in basal tone. Following stabilization of this enhanced level of contractile activity, incremental increases in the concentration of test compound or vehicle are introduced into the tissue bath. Contractile activity is measured for each compound or vehicle concentration during the last […] of a 30 min challenge.
Isometric force developed by the bladder strips is measured using a […] to elicit 50% inhibition of pre-drug contractile activity (IC50 concentration) is calculated from this concentration-response curve. The maximum percentage inhibition of contractile activity evoked by a test compound is also recorded for concentrations of test compound<or equal to 30 μM.

A word on the inhibition: it is the percentage by which the read-out fell short of the control. Regarding `CC[C@H](Nc1c(Nc2ccc(C#N)cc2)c(=O)c1=O)c1ccccc1` [Example 11, 4-[3,4-Dioxo-2-((S)-1-phenyl-propylamino)-cyclobut-1-enylamino]-benzonitrile], the inhibition at 30 µM came to 28%.

The IC50 is the concentration that inhibits the measured activity by half. Turning to `C[C@@H](Nc1c(Nc2ccc(C#N)cc2)c(=O)c1=O)c1ccccc1` [Example 1, 4-[3,4-Dioxo-2-((R)-1-phenyl-ethylamino)-cyclobut-1-enylamino]-benzonitrile], the IC50 was 0.056 µM.

As to `C[C@@H](Nc1c(Nc2ccncc2)c(=O)c1=O)c1ccccc1` [Example 4, 3-((R)-1-Phenyl-ethylamino)-4-(pyridin-4-ylamino)-cyclobut-3-ene-1,2-dione], the IC50 is 2.3 µM.

As to `C[C@H](Nc1c(Nc2ccc(C#N)cc2)c(=O)c1=O)c1ccccc1` [Example 5, 4-[3.4-Dioxo-2-((S)-1-phenyl-ethylamino)-cyclobut-1-enylamino]-benzonitrile], the inhibition at 30 µM was determined as 38%.

Turning to `CC(C)(Nc1c(Nc2ccc(C#N)cc2)c(=O)c1=O)c1ccccc1` [Example 9, 4-[3,4-Dioxo-2-(1-methyl-1-phenyl-ethylamino)-cyclobut-1-enylamino]-benzonitrile], the inhibition at 30 µM came out at 22%.
